Reference: patent US6495525B1, “VLA-4 inhibitor: oMePUPA-V” (Biogen, Inc., priority 1998, dated 2002)

What was measured:
[1] = target: VLA-4 (Homo sapiens, UniProt P05556+P13612); experiment: CS1 Cell Adhesion Assay, Jurkat cells to CS1/BSA conjugate; format: cell-based; parameters: endogenous in cells; host or cells: Jurkat (human T cell line); conditions: in the presence of Mn+2
Description: The peptide NH2-cysteine-tyrosine-CS-1 was synthesized and coupled to BSA-SMCC (SMCC is a heterobifunctional crosslinker which reacts with free amino groups on BSA and the sole cysteine of the synthetic peptide) at a CS1/BSA ratio of 10:1. Wells were coated overnight with 100 μL of conjugate diluted to a final concentration of 1 ug/ml. The next day the wells were blocked with BSA in PBS for one hour and then washed three times.
The human T cell line, Jurkat, was labeled with 2 μM BCECF-AM, a fluorescent dye (2′, 7′, bis-(2-carboxyethyl)-5 and -6) carboxy fluorescein acetoxymethyl ester (Molecular Probes Inc., Eugene, Oregon; catalog #B-1150) that is internalized and deesterified thus trapping the dye within live cells. Jurkat cells (1×10^5 cells/well) in buffer containing 1 mM Mn^+2 were added to the coated plates in the presence of three-fold serial dilutions of inhibitor. Each concentration was assayed in duplicate. After 30 minutes at room temperature, the plates were inverted and washed three times or until no cells were adherent to control wells coated with BSA alone. CS1-adherent cells were quantitated in a Cytofluor fluorescent platereader using an excitation wavelength of 485 nm and an emission wavelength of 530 nm.
Cells adhered to CS1/BSA in the absence of compound served as the 0% inhibition control whereas cells adhering to BSA alone served as the 100% inhibition control. IC50's were calculated using Deltagraph software, version 5.

[2] = Bulk / drug substance stability (HPLC); format: physicochemical
Description: At four weeks, one or two degradation peaks became detectable at 40° C. and 50° C., but the level of each impurity peak was still less than 0.02%.

Chain of VLA-4 (P13612 34-1032): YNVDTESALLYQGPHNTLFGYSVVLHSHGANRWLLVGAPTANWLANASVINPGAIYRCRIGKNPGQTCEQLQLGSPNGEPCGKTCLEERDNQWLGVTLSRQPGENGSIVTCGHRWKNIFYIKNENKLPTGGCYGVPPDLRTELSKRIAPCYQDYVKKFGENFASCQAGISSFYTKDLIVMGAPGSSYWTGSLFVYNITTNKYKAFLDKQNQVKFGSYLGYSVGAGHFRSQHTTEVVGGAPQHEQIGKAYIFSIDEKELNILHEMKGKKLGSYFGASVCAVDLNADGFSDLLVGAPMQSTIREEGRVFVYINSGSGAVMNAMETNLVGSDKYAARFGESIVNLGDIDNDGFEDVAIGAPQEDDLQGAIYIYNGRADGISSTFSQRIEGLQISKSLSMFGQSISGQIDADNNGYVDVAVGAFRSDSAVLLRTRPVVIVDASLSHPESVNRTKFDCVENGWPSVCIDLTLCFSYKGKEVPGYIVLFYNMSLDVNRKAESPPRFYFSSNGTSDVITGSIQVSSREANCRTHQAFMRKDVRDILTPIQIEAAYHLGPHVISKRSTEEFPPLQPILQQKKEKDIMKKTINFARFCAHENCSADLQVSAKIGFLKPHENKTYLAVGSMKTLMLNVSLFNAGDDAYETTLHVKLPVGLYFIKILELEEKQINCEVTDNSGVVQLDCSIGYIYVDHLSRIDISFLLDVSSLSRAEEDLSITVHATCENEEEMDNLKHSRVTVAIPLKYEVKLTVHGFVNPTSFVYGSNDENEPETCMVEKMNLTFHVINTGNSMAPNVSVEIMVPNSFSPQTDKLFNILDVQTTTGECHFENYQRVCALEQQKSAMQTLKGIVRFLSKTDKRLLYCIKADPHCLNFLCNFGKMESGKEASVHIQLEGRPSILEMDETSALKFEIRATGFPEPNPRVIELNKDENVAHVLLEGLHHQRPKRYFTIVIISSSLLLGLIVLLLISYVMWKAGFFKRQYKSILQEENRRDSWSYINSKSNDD
Chain of VLA-4 (P05556 21-798): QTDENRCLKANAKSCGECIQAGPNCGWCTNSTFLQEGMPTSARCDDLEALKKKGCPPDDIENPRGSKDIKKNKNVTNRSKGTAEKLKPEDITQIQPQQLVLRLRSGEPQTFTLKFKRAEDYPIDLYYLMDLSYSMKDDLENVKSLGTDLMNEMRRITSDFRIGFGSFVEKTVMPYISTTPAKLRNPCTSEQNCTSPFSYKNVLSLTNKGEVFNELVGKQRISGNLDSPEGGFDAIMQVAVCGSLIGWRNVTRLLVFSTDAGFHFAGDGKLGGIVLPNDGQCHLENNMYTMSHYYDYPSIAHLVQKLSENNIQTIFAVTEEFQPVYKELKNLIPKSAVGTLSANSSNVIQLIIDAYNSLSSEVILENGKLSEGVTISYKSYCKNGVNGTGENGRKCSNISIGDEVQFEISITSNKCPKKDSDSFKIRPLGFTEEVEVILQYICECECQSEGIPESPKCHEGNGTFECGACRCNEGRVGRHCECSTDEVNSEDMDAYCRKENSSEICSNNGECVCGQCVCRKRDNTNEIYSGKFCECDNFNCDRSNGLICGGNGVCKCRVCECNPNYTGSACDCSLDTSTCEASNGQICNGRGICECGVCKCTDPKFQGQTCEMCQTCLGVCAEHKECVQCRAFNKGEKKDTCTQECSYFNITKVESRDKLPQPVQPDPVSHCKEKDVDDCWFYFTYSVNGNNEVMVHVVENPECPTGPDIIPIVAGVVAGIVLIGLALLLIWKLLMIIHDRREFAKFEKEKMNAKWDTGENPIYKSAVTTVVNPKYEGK

| level of each impurity (degradation) peak ([2]; four weeks, 40° C. and 50° C.) | degradation on storage (in words) ([2]; two weeks, 40° C. closed vial, 50° C. closed vial, 25° C., RH 60%, 40° C., RH 75%) | Structure (SMILES) | blocking of Jurkat cell adhesion to CS1 (in words) [1] |
| --- | --- | --- | --- |
|  |  | O=C(O)CN(CCN(CC(=O)O)CC(=O)O)CC(=O)O [EDTA, reference compound] | blocked completely |
| less than 0.02% | No degradation | Cc1ccccc1NC(=O)Nc1ccc(CC(=O)N2CCC[C@@H]2C(=O)NC(C)CC(=O)O)cc1 (stereo partly drawn) [oMePUPA-V] |  |
